Legend:
[1] = system: (14C) cholesterol synthesis from (14C) acetate; experiment: in vivo inhibition of (14C) cholesterol prepared from 14C acetate in rats; settings: for cholesterol lowering activity (in words): in vivo
Experimental: The in vivo experiments were conducted using radiolabelled (^14C) acetate which was administered to the rats converting it into (^14C) cholesterol. This synthesis was measured by quantitating (^14C) cholesterol inhibited by HMG-CoA reductase inhibitor.

HMG-CoA reductase [2] = biological target: T1, HMG-CoA reductase (Homo sapiens, UniProt P04035); experiment: in vitro HMG-CoA reductase inhibitory activity; assay type: biochemical
T1 sequence (P04035 1-888): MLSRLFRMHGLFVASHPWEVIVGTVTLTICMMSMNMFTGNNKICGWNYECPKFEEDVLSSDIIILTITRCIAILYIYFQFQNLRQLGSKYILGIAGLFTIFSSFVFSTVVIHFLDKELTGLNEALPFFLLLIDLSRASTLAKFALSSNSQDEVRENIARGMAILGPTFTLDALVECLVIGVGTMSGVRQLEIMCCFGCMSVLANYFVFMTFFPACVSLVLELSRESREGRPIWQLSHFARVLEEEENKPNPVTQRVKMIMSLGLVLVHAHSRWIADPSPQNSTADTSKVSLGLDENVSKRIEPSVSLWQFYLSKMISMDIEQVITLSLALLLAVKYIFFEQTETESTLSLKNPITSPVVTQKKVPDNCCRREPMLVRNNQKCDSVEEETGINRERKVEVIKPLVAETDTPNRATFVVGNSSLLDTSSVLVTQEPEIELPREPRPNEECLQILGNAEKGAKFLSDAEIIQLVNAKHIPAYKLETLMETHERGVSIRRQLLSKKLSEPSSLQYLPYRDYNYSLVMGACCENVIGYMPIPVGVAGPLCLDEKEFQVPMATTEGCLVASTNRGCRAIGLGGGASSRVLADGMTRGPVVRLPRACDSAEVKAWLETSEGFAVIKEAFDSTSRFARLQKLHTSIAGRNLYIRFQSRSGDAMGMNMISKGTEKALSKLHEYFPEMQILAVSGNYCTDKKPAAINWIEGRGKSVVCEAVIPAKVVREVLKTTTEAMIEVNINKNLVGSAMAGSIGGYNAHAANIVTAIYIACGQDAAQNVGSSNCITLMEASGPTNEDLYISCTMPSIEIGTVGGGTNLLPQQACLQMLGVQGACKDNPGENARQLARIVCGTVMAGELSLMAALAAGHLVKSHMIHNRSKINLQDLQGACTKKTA
Experimental: The in vivo and in vitro biological activity of the methyl analog of simvastatin isomeric compounds of structural formulae VIIc and VIIa was carried out on a HMG-CoA reductase inhibitory model. The compounds were tested at three concentrations (10^−5, 10^−7 and 10^−9 M) for the in vitro activity.

HMG-CoA reductase [3] = biological target: T1, HMG-CoA reductase; settings: cited from earlier work

% HMG-CoA reductase inhibition activity (HMG-CoA reductase [2]; concentration 10^-5 M) | % HMG-CoA reductase inhibition activity (HMG-CoA reductase [2]; concentration 10^-7 M) | % HMG-CoA reductase inhibition activity (HMG-CoA reductase [2]; concentration 10^-9 M) | Compound | % inhibition of (14C) cholesterol prepared from 14C acetate ([1]; 1 mg/kg i.p.) | % inhibition of (14C) cholesterol prepared from 14C acetate ([1]; 1 mg/kg orally) | % inhibition of (14C) cholesterol prepared from 14C acetate ([1]; 5 mg/kg orally) | cholesterol lowering activity (in words) [1] | HMG-CoA reductase inhibitory activity (in words) (HMG-CoA reductase [2]; tested at 10^-5, 10^-7 and 10^-9 M) | potency relative to mevinolin (HMG-CoA reductase [3])
100% | 93% | 30% | CCC(C)(C)C(=O)O[C@H]1C[C@@H](C)C=C2C=C[C@H](C)[C@H](CC[C@@H]3C[C@@H](O)[C@@H](C)C(=O)O3)[C@H]21 [VIIa, 6(R)-[2-[8(S)-[[2,2-Dimethylbutanoyl]oxyl]-2(S),6(R)-dimethyl-1,2,6,7,8,8a(R)-hexahydro-1(S)-napthyl]ethyl]-3(R)-methyl,4(R)-hydroxy-3,4,5,6-tetrahydro-2H-pyran-2-one] | 10% | 0% | 69% | have cholesterol lowering activity | – | –
99% | 71% | 8% | CCC(C)(C)C(=O)O[C@H]1C[C@@H](C)C=C2C=C[C@H](C)[C@H](CC[C@@H]3C[C@@H](O)[C@H](C)C(=O)O3)[C@H]21 [VIIc, 6(R)-[2-[8(S)-[[2,2-Dimethylbutanoyl]oxyl]-2(S),6(R)-dimethyl-1,2,6,7,8,8a(R)-hexahydro-1(S)-napthyl]ethyl]-3(S)-methyl,4(R)-hydroxy-3,4,5,6-tetrahydro-2H-pyran-2-one] | 8% | 0% | 57% | have cholesterol lowering activity | significant HMG-CoA reductase inhibitory activity | –
– | – | – | CCC(C)(C)C(=O)O[C@H]1C[C@@H](C)C=C2C=C[C@H](C)[C@H](CC[C@@H]3C[C@@H](O)CC(=O)O3)[C@H]21 [simvastatin] | – | – | – | – | – | twice as potent as mevinolin
